In patent US20130254944A1, “Herbicide Tolerant Soybeans and Methods of Use” (PIONEER HI BRED INTERNATIONAL INC, priority 2012, published 2013):

Legend:
Format in all cases: in vivo
[1] = tested on: soybean having the Als2 mutation; assay: Greenhouse postemergence test of ALS-inhibiting herbicides, soybean with Als2 mutation; conditions: for Avg response (% phytotoxicity), Trait Als2: Table 2; for EC10, Als2: rate of herbicide estimated to cause 10% phytotoxic response, loglogistic fit
Procedure: (§1) Soybean lines having wild type als1 & 2 genes, the Als1 mutation, the Als2 mutation, or both the Als1 and Als2 mutations were evaluated for their response to various herbicides. Two seeds from each line were planted into 4-inch pots containing Redi-Earth potting mix (Sun Gro Horticulture Canada Ltd. 52130 RR65, Seba Beach, Alberta TOE 2B0), with two replications planted for each treatment. Pots were placed in flats at 15 pots/flat, and the resulting plants were grown in a greenhouse environment supplemented with lighting (16 hr photoperiod) for the duration of the test. Selected herbicides representing the mode of action that inhibits the acetolactate synthase enzyme, also known as the acetohydroxyacid synthase enzyme, were applied postemergence to soybean when soybean plants were at the V2 growth stage, which is the stage at which the first two trifoliolate leaves were expanded.
(§2) Eleven active ingredients representing the five chemical families with herbicidal activity on the acetolactate synthase enzyme were tested. These herbicides can cause a phytotoxic response in wild type soybean plants. The five chemical families tested were sulfonylaminocarbonyltriazolinone (also known as triazolinone), imidazolinone, sulfonylurea, pyrimidinylthiobenzoate, and triazolopyrimidine. Application rates ranged from 0.5 times to eight times the currently labeled application rate for each active ingredient with spray application volume at 30 gallons/acre. The application rates tested were 0.5×, 1×, 2×, 4× and 8× the label rate for each herbicide. Herbicidal active ingredients were applied as formulated materials dispersed in water containing 0.25% nonionic surfactant (Trend® 90).
(§3) The test was evaluated by visually scoring plant phenotype 14 days after the herbicides were applied. Controls consisted of soybean plants of the same variety that received no herbicide treatments for each of all the varieties tested. Soybean response was recorded on a zero to 100 visual scale in which zero is no phytotoxic response and 100 is plant death fourteen days after the herbicides were applied. Soybean response (percent phytotoxicity) to postemergence applications of herbicides inhibiting the acetolactate synthase enzyme test results are shown in Table 1.
(§4) Results in Table 1 were evaluated using the isobole method for analyzing interactions. […] Here the biologically active agents that are being assessed for interaction (synergy) are gene mutations in soybean. The effectiveness of the genes in providing improved tolerance to ALS-inhibiting herbicides was assessed by applying increasing doses of herbicides to each soybean line with its mutation(s).
(§5) An isobole reduces a dose response surface in three dimensional space to a two dimensional plot by fixing a defined response level (e.g., 50% response). The isobole plot is a graph in the Cartesian plane with a straight line connecting the isoeffective rates of the individual components of the combination. This straight line represents expected responses for zero interactive combinations. The isoeffective rate used to create the isobole is often the EC50, the rate estimated to elicit 50% response, but other ECx values can be used. Since the isobole method is based on the potency of the components of the combination, an experimental design testing a range of rates expected to elicit the full range of responses (e.g., 0 to maximum response) is best. (Ferry et al. (2005) 2005 Conference on Applied Statistics in Agriculture Proceedings pp 33-50, Manhattan, Kans., Kansas State Univ.; Green and Streibig (1993) Herbicide Mixtures, pp 117-134 in Herbicide Bioassays, Streibig and Hudsk Eds, CRC, Boca Raton, Fla.).
(§6) Loglogistic dose response curves were fit to percent phytotoxicity response data using log 10 of dose (McCullagh and Nelder (1989) Generalized Linear Models, Chapman & Hall, London). Curves were fit using the logit link with normal errors. […]

[2] = tested on: soybean having the Als1 mutation; assay: Greenhouse postemergence test of ALS-inhibiting herbicides, soybean with Als1 mutation; conditions: for Avg response (% phytotoxicity), Trait Als1: Table 2; for EC10, Als1: rate of herbicide estimated to cause 10% phytotoxic response, loglogistic fit
Procedure: as §1, §2, §3, §4, §5, §6

[3] = tested on: wild type soybean; assay: Greenhouse postemergence test of ALS-inhibiting herbicides, wild type soybean
Procedure: as §1, §2, §3

[4] = tested on: soybean having both the Als1 and Als2 mutations; assay: Greenhouse postemergence test of ALS-inhibiting herbicides and isobole analysis, soybean with Als1 and Als2 mutations; conditions: for Avg response (% phytotoxicity), Trait Als1 + Als2: Table 2; for EC10, Als1 + Als2: rate of herbicide estimated to cause 10% phytotoxic response, loglogistic fit
Procedure: as §1, §2, §3, §4, §5, §6

[5] = 35 g ai/ha postemergence at V2, scored 14 days after application
[6] = 70 g ai/ha postemergence at V2, scored 14 days after application
[7] = 140 g ai/ha postemergence at V2, scored 14 days after application
[8] = 280 g ai/ha postemergence at V2, scored 14 days after application
[9] = 560 g ai/ha postemergence at V2, scored 14 days after application
[10] = 17.5 g ai/ha postemergence at V2, scored 14 days after application

Compound | Soybean response (percent phytotoxicity), Als2 [1, 5] | Avg response (% phytotoxicity), Trait Als2 ([1]; 35 g ai/ha) | Soybean response (percent phytotoxicity), Als2 [1, 6] | Avg response (% phytotoxicity), Trait Als2 ([1]; 70 g ai/ha) | Soybean response (percent phytotoxicity), Als2 [1, 7] | Avg response (% phytotoxicity), Trait Als2 ([1]; 140 g ai/ha) | Soybean response (percent phytotoxicity), Als2 [1, 8] | Avg response (% phytotoxicity), Trait Als2 ([1]; 280 g ai/ha) | EC10, Als2 [1] | Soybean response (percent phytotoxicity), Als1 [2, 5] | Avg response (% phytotoxicity), Trait Als1 ([2]; 35 g ai/ha) | Soybean response (percent phytotoxicity), Als1 [2, 6] | Avg response (% phytotoxicity), Trait Als1 ([2]; 70 g ai/ha) | Soybean response (percent phytotoxicity), Als1 [2, 7] | Avg response (% phytotoxicity), Trait Als1 ([2]; 140 g ai/ha) | Soybean response (percent phytotoxicity), Als1 [2, 8] | Avg response (% phytotoxicity), Trait Als1 ([2]; 280 g ai/ha) | EC10, Als1 [2] | Soybean response (percent phytotoxicity), Wild type [3, 5] | Soybean response (percent phytotoxicity), Wild type [3, 6] | further results
CCc1cnc(C2=NC(C)(C(C)C)C(=O)N2)c(C(=O)O)c1 (stereo not shown) [Imazethapyr] | 0% | 0% | 0% | 0% | 0% | 0% | 0% | 0% | 560.00 g ai/ha | 0% | 0% | 0% | 0% | 0% | 0% | 10% | 10% | 333.22 g ai/ha | 0% | 0% | Soybean response (percent phytotoxicity), Als2 [1, 9]: 5%; Avg response (% phytotoxicity), Trait Als2 ([1]; 560 g ai/ha): 10%; Soybean response (percent phytotoxicity), Als1 [2, 9]: 20%; Avg response (% phytotoxicity), Trait Als1 ([2]; 560 g ai/ha): 20%; Soybean response (percent phytotoxicity), Wild type [3, 7]: 0%; Soybean response (percent phytotoxicity), Wild type [3, 8]: 15%; Soybean response (percent phytotoxicity), Wild type [3, 9]: 20%; Soybean response (percent phytotoxicity), Als1 + Als2 [4, 5]: 0%; Avg response (% phytotoxicity), Trait Als1 + Als2 ([4]; 35 g ai/ha): 0%; Soybean response (percent phytotoxicity), Als1 + Als2 [4, 6]: 0%; Avg response (% phytotoxicity), Trait Als1 + Als2 ([4]; 70 g ai/ha): 0%; Soybean response (percent phytotoxicity), Als1 + Als2 [4, 7]: 0%; Avg response (% phytotoxicity), Trait Als1 + Als2 ([4]; 140 g ai/ha): 0%; Soybean response (percent phytotoxicity), Als1 + Als2 [4, 8]: 5%; Avg response (% phytotoxicity), Trait Als1 + Als2 ([4]; 280 g ai/ha): 5%; Soybean response (percent phytotoxicity), Als1 + Als2 [4, 9]: 10%; Avg response (% phytotoxicity), Trait Als1 + Als2 ([4]; 560 g ai/ha): 10%; EC10, Als1 + Als2 [4]: 549.93 g ai/ha
COc1cc(OC)nc(NC(=O)NS(=O)(=O)c2ncccc2C(=O)N(C)C)n1 [Nicosulfuron] | 0% | 0% | 0% | 0% | 20% | 20% | 35% | 35% | 105.60 g ai/ha | 0% | 0% | 0% | 0% | 5% | 5% | 25% | 25% | 187.47 g ai/ha | 10% | 20% | Soybean response (percent phytotoxicity), Als2 [1, 10]: 0%; Avg response (% phytotoxicity), Trait Als2 ([1]; 17.5 g ai/ha): 0%; Soybean response (percent phytotoxicity), Als1 [2, 10]: 0%; Avg response (% phytotoxicity), Trait Als1 ([2]; 17.5 g ai/ha): 0%; Soybean response (percent phytotoxicity), Wild type [3, 10]: 0%; Soybean response (percent phytotoxicity), Wild type [3, 7]: 45%; Soybean response (percent phytotoxicity), Wild type [3, 8]: 65%; Soybean response (percent phytotoxicity), Als1 + Als2 [4, 10]: 0%; Avg response (% phytotoxicity), Trait Als1 + Als2 ([4]; 17.5 g ai/ha): 0%; Soybean response (percent phytotoxicity), Als1 + Als2 [4, 5]: 0%; Avg response (% phytotoxicity), Trait Als1 + Als2 ([4]; 35 g ai/ha): 0%; Soybean response (percent phytotoxicity), Als1 + Als2 [4, 6]: 0%; Avg response (% phytotoxicity), Trait Als1 + Als2 ([4]; 70 g ai/ha): 0%; Soybean response (percent phytotoxicity), Als1 + Als2 [4, 7]: 0%; Avg response (% phytotoxicity), Trait Als1 + Als2 ([4]; 140 g ai/ha): 0%; Soybean response (percent phytotoxicity), Als1 + Als2 [4, 8]: 5%; Avg response (% phytotoxicity), Trait Als1 + Als2 ([4]; 280 g ai/ha): 5%; EC10, Als1 + Als2 [4]: >280 g ai/ha
